{"source": "patent US20230373989A1", "about": "“N-PHENYLAMINOCARBONYL PYRIDINO-, PYRIMIDINO AND BENZO-TROPANES AS MODULATORS OF GPR65” (PATHIOS THERAPEUTICS LIMITED, priority 2020, published 2023)", "note": "pIC50: −log10 of the molar value."}
{"biological_target": "T1, human recombinant GPR65 (Homo sapiens, UniProt Q8IYL9)", "T1 construct": "host or cells: 1321N1 human astrocytoma cells (1321N1-hrGPR65)", "T1 sequence (Q8IYL9 whole entry)": "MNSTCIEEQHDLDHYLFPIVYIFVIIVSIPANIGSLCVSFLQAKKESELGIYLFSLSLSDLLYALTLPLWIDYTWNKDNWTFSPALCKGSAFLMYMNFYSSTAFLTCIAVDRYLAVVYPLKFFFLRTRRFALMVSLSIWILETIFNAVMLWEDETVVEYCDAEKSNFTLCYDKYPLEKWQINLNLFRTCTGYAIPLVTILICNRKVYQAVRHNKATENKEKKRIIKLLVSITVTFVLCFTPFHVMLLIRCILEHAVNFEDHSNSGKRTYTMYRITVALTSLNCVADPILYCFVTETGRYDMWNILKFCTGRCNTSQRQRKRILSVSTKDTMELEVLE", "test": "Human GPR65 cAMP HTRF antagonist assay", "format": "cell-based", "settings": "not given", "outline": "(§1)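 1321N1 astrocytoma cells stably expressing GPR65 were preincubated with compound for 30 min at room temperature in KRH pH 7.6 with 1 mM IBMX and 200 μM EDTA. They were then stimulated at assay pH 7.2 for 30 min, with controls at pH 7.9. cAMP was read by HTRF (665/620 nm), normalised to controls and fitted by 4-parameter logistic to give IC50.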"}
{"smiles": "O=C(Nc1ccc(Cl)c(Cl)c1)N1C2CCC1c1cnc(F)cc1C2", "note": "(racemic) [Compound 67, (±)-N-(3,4-Dichlorophenyl)-3-fluoro-6,7,8,9-tetrahydro-5H-6,9-epiminocyclohepta[c]pyridine-10-carboxamide]", "pIC50": "5.30 to 6.30"}
{"smiles": "O=C(Nc1cc(Cl)c(C(F)(F)F)cc1F)N1[C@@H]2CC[C@H]1c1ccc(F)nc1C2", "note": "[Compound 197, (5S,8R)-N-(5-Chloro-2-fluoro-4-(trifluoromethyl)phenyl)-2-fluoro-6,7,8,9-tetrahydro-5H-5,8-epiminocyclohepta[b]pyridine-10-carboxamide]", "pIC50": "5.30 to 6.30"}
{"smiles": "C=CC(=O)Nc1ccc(NC(=O)N2[C@H]3CC[C@@H]2c2ccnc(F)c2C3)cc1Cl", "note": "[Compound 179, (5R,8S)-N-(4-Acrylamido-3-chlorophenyl)-1-fluoro-6,7,8,9-tetrahydro-5H-5,8-epiminocyclohepta[c]pyridine-10-carboxamide]", "pIC50": "5.30 to 6.30"}
{"smiles": "O=C(Nc1cc(Cl)c(Cl)cc1F)N1C2CCC1c1ccc(F)nc1C2", "note": "(racemic) [Compound 181, (±)-N-(4,5-Dichloro-2-fluorophenyl)-2-fluoro-6,7,8,9-tetrahydro-5H-5,8-epiminocyclohepta[b]pyridine-10-carboxamide]", "pIC50": "> 6.30"}
{"smiles": "O=C(Nc1cc(Cl)ccc1F)N1C2CCC1c1ccnc(F)c1C2", "note": "(racemic) [Compound 174, (±)-N-(5-Chloro-2-fluorophenyl)-1-fluoro-6,7,8,9-tetrahydro-5H-5,8-epiminocyclohepta[c]pyridine-10-carboxamide]", "pIC50": "> 6.30"}
{"smiles": "O=C(Nc1ccc(Cl)c(Cl)c1)N1C2CCC1c1ncncc1C2", "note": "(racemic) [Compound 17, (±)-N-(3,4-Dichlorophenyl)-6,7,8,9-tetrahydro-5H-6,9-epiminocyclohepta[d]pyrimidine-10-carboxamide]", "pIC50": "> 6.30"}
{"smiles": "Cc1cc(NC(=O)N2C3CCC2c2ccnc(F)c2C3)ccc1C(F)(F)F", "note": "(racemic) [Compound 167, (±)-1-Fluoro-N-(3-methyl-4-(trifluoromethyl)phenyl)-6,7,8,9-tetrahydro-5H-5,8-epiminocyclohepta[c]pyridine-10-carboxamide]", "pIC50": "> 6.30"}
{"smiles": "O=C(Nc1ccc(OC(F)F)c(Cl)c1)N1[C@H]2CC[C@@H]1c1c[nH]c(=O)cc1C2", "note": "[Compound 127, (6S,9R)-N-(3-Chloro-4-(difluoromethoxy)phenyl)-3-oxo-3,5,6,7,8,9-hexahydro-2H-6,9-epiminocyclohepta[c]pyridine-10-carboxamide]", "pIC50": "> 6.30"}
{"smiles": "O=C(Nc1cc(C(F)(F)F)c(Cl)cc1F)N1[C@H]2CC[C@@H]1c1ccnc(F)c1C2", "note": "[Compound 126, (5R,8S)-N-(4-Chloro-2-fluoro-5-(trifluoromethyl)phenyl)-1-fluoro-6,7,8,9-tetrahydro-5H-5,8-epiminocyclohepta[c]pyridine-10-carboxamide]", "pIC50": "> 6.30"}
{"smiles": "O=C(Nc1cc(Cl)c(Cl)cc1F)N1[C@H]2CC[C@@H]1c1c(F)cncc1C2", "note": "[Compound 190, (5R,8S)-N-(4,5-Dichloro-2-fluorophenyl)-4-fluoro-6,7,8,9-tetrahydro-5H-5,8-epiminocyclohepta[c]pyridine-10-carboxamide]", "pIC50": "> 6.30"}
{"biological_target": "T1, human recombinant GPR65", "test": "Human GPR65 cAMP HTRF antagonist assay", "format": "cell-based", "settings": "1321N1-hrGPR65 cells, assay pH 7.2, cAMP HTRF; read-out: hGPR65 IC50 (activity class)", "outline": "as §1"}
{"smiles": "O=C(Nc1ccc(C(F)(F)F)c(Cl)c1)N1[C@@H]2CC[C@H]1c1cncnc1C2", "note": "[Compound 39, (5S,8R)-N-(3-Chloro-4-(trifluoromethyl)phenyl)-6,7,8,9-tetrahydro-5H-5,8-epiminocyclohepta[d]pyrimidine-10-carboxamide]", "pIC50": "< 5.30"}
{"smiles": "O=C(Nc1ccc(Cl)c(Cl)c1)N1C2CCC1c1cnc(Cl)cc1C2", "note": "(racemic) [Compound 100, (±)-3-Chloro-N-(3,4-dichlorophenyl)-6,7,8,9-tetrahydro-5H-6,9-epiminocyclohepta[c]pyridine-10-carboxamide]", "pIC50": "5.30 to 6.30"}
{"smiles": "O=C(Nc1cc(F)cc(F)c1)N1C2CCC1c1ccnc(F)c1C2", "note": "(racemic) [Compound 173, (±)-N-(3,5-Difluorophenyl)-1-fluoro-6,7,8,9-tetrahydro-5H-5,8-epiminocyclohepta[c]pyridine-10-carboxamide]", "pIC50": "5.30 to 6.30"}
{"smiles": "O=C(Nc1ccc(C(F)(F)F)c(Cl)c1)N1C2CCC1c1cnc(-c3ccccc3)nc1C2", "note": "(racemic) [Compound 29, (±)-N-(3-Chloro-4-(trifluoromethyl)phenyl)-2-phenyl-6,7,8,9-tetrahydro-5H-5,8-epiminocyclohepta[d]pyrimidine-10-carboxamide]", "pIC50": "5.30 to 6.30"}
{"smiles": "O=C(Nc1ccc(C(F)(F)F)c(Cl)c1)N1C2CCC1c1cnc(C(F)(F)F)nc1C2", "note": "(racemic) [Compound 27, (±)-N-(3-Chloro-4-(trifluoromethyl)phenyl)-2-(trifluoromethyl)-6,7,8,9-tetrahydro-5H-5,8-epiminocyclohepta[d]pyrimidine-10-carboxamide]", "pIC50": "< 5.30"}
{"smiles": "Cn1cc2c(cc1=O)C[C@@H]1CC[C@H]2N1C(=O)Nc1ccc(Cl)c(Cl)c1", "note": "[Compound 150, (6S,9R)—N-(3,4-Dichlorophenyl)-2-methyl-3-oxo-3,5,6,7,8,9-hexahydro-2H-6,9-epiminocyclohepta[c]pyridine-10-carboxamide]", "pIC50": "5.30 to 6.30"}
{"smiles": "O=C(Nc1ccc(Cl)c(Cl)c1)N1C2CCC1c1cc(F)ncc1C2", "note": "(racemic) [Compound 69, (±)-N-(3,4-Dichlorophenyl)-3-fluoro-6,7,8,9-tetrahydro-5H-5,8-epiminocyclohepta[c]pyridine-10-carboxamide]", "pIC50": "5.30 to 6.30"}
{"smiles": "O=C(Nc1ccc(C(F)(F)F)c(Cl)c1)N1C2CCC1c1ccccc1C2", "note": "(racemic) [Compound 54, (±)-N-(3-Chloro-4-(trifluoromethyl)phenyl)-6,7,8,9-tetrahydro-5H-5,8-epiminobenzo[7]annulene-10-carboxamide]", "pIC50": "5.30 to 6.30"}
{"smiles": "O=C(Nc1ccc(Cl)c(C(F)(F)F)c1)N1C2CCC1c1cncnc1C2", "note": "(racemic) [Compound 3, (±)-N-(4-Chloro-3-(trifluoromethyl)phenyl)-6,7,8,9-tetrahydro-5H-5,8-epiminocyclohepta[d]pyrimidine-10-carboxamide]", "pIC50": "5.30 to 6.30"}
{"smiles": "O=C(Nc1ccc(C(F)(F)F)c(Cl)c1)N1C2CCC1c1cc(F)ccc1C2", "note": "(racemic) [Compound 81, (±)-N-(3-Chloro-4-(trifluoromethyl)phenyl)-3-fluoro-6,7,8,9-tetrahydro-5H-5,8-epiminobenzo[7]annulene-10-carboxamide]", "pIC50": "5.30 to 6.30"}
{"smiles": "COC(=O)c1cc(NC(=O)N2[C@H]3CC[C@@H]2c2c[nH]c(=O)cc2C3)c(F)cc1Cl", "note": "[Compound 132, Methyl 2-chloro-4-fluoro-5-((6S,9R)-3-oxo-3,5,6,7,8,9-hexahydro-2H-6,9-epiminocyclohepta[c]pyridine-10-carboxamido)benzoate]", "pIC50": "5.30 to 6.30"}
{"smiles": "COc1ccc(NC(=O)N2C3CCC2c2cncnc2C3)cc1Cl", "note": "(racemic) [Compound 8, (±)-N-(3-Chloro-4-methoxyphenyl)-6,7,8,9-tetrahydro-5H-5,8-epiminocyclohepta[d]pyrimidine-10-carboxamide]", "pIC50": "< 5.30"}
{"smiles": "O=C(Nc1cccc(Cl)c1Cl)N1C2CCC1c1ccnc(F)c1C2", "note": "(racemic) [Compound 161, (±)-N-(2,3-Dichlorophenyl)-1-fluoro-6,7,8,9-tetrahydro-5H-5,8-epiminocyclohepta[c]pyridine-10-carboxamide]", "pIC50": "5.30 to 6.30"}
{"smiles": "N#Cc1ccc(NC(=O)N2C3CCC2c2cncnc2C3)cc1Br", "note": "(racemic) [Compound 13, (±)-N-(3-Bromo-4-cyanophenyl)-6,7,8,9-tetrahydro-5H-5,8-epiminocyclohepta[d]pyrimidine-10-carboxamide]", "pIC50": "< 5.30"}
